The target of one data set is T1, hERG potassium channel (Homo sapiens, UniProt Q12809).
T1 construct: Eurofins
In words: hERG channel binding assay ([3H]dofetilide displacement). The settings on record: for inhibition at 10 µM: human, probe [3H]dofetilide. The method, then: The evaluation of the binding of the compounds to the human hERG potassium channel was carried out as described previously (Eurofins).
Since the blocking of the human potassium channel hERG channel may be responsible for cardiac fibrillation leading to cardiac arrest and death of the patient, the binding of the 3 molecules SG6163F, VP331 and LOPA87 to this receptor was evaluated.

In the next data set the test system is RNVCs. In words: Autophagosome formation after GFP-LC3 plasmid transfection (fluorescence microscopy). It is filed as cell-based, rat. The settings on record: GFP-LC3 transfected RNVCs. On the procedure: FIG. 4D: after transfection of the plasmid GFP-LC3, the fluorescent green GFP-LC3 spots were visualized by fluorescence microscopy and quantified with ImageJ to verify autophagosome formation. Data are presented as mean±SEM with single-factor ANOVA, and multiple Sidak comparisons. ***, p<0.001 with respect to 0.01% DMSO.
On day 0, 4×10^5 neonatal cardiomyocytes were plated overnight in laminin-coated 35 mm culture dishes (10 μg/ml). On day 1, the cells were transfected with 1 μg of GFP-LC3 plasmid using the transfection reagent Lipofectamine® 2000 (1 μg of GFP-LC3 corresponds to 2.5 μl of transfection reagent), for 48 h, then the green fluorescence was detected with a Leica confocal microscope (SP5). The analyses were carried out with the ImageJ program (Wayne Rasband, National Institutes of Health, USA).
Next, the hypothesis that the compounds could protect cardiac cells by activating autophagy, a catabolic process conserved in evolution that involves the degradation of damaged cytoplasmic components, was formulated. […] Then, the cells were treated with the hits and with H2O2 for 2 hours and their survival was analyzed 4 hours later by measuring LDH release (FIGS. 4B, 4C). […] In order to confirm the induction of autophagy by another approach, the RNVCs were transfected with a GFP-LC3 plasmid and the formation of the autophagosome was monitored 24 hours later. […]

The subject of the next data set is H9C2 cells. In words: Exogenous fatty acid oxidation (XF palmitate-BSA FAO substrate with mito stress test). The data set is classed as cell-based, rat. The settings on record: fatty acids as substrate. On the procedure: FIG. 8C: the oxidation of the exogenous fatty acids was measured simultaneously using the XF palmitate-BSA FAO substrate kit with the mito stress test on XF cells. Before starting the test, 30 μL of XF palmitate-BSA CAM or BSA control substrate were added to the appropriate wells.
The XFe96 extracellular flow analyzer (Seahorse Biosciences, North Billerica, MA, USA) was used to measure the bioenergetic function of H9C2 cardiomyocytes. The H9C2 cells were seeded at 20 000 cells per well in XF96 cell culture microplates; all the pretreatments were carried out with serum-free cell culture medium. The Agilent Seahorse XF glycolysis stress test was performed to measure glycolytic function in the H9C2 cells; the extracellular acidification rate (ECAR) was measured sequentially by 3 injections, 10 mM glucose, 2 μM oligomycin and 50 mM 2-deoxy-D-glucose (2-DG). The Agilent Seahorse XF Cell Mito stress test measured key parameters of mitochondrial function by directly measuring the oxygen consumption rate (OCR) of the H9C2 cells. […] The oxidation of the exogenous fatty acids was measured simultaneously using the XF palmitate-BSA FAO substrate kit with the mitochondrial stress test on XF cells. […]
Next, the energy metabolism was analyzed in real time using the Seahorse technology in H9C2 cells.

Like-named read-outs stand apart in the source and are kept apart here.

T1 sequence (Q12809 whole entry): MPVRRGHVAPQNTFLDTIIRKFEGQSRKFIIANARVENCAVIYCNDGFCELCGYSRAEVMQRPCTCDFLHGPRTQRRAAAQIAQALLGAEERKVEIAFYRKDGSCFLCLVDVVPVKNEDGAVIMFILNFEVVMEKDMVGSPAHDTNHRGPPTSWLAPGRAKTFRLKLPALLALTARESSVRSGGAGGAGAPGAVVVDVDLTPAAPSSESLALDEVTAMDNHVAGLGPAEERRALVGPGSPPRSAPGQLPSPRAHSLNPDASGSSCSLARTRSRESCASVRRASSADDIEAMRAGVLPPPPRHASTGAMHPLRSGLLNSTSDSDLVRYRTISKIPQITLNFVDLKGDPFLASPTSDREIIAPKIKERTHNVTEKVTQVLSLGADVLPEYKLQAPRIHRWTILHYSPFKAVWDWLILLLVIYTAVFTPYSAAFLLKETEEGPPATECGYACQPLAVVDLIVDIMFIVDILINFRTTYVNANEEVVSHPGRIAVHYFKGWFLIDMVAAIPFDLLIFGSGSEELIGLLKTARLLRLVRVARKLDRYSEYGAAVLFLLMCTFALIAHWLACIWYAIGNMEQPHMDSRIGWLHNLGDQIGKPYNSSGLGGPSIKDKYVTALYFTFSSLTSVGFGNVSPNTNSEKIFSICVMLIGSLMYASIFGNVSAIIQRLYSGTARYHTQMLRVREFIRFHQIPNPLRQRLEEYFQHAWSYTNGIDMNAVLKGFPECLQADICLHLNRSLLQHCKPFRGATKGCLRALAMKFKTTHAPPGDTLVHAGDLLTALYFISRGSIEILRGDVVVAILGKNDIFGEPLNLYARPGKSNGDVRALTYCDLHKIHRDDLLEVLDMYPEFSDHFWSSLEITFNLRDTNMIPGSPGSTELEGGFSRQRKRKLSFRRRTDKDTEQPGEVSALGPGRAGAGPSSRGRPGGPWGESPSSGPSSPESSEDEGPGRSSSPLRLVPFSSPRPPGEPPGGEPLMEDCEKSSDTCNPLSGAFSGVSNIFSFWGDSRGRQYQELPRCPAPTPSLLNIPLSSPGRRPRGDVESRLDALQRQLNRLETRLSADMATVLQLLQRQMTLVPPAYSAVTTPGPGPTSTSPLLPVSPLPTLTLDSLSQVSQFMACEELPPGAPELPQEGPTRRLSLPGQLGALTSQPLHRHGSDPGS

Take `O=C1NC(c2ccccc2)=N/C1=C\c1cc2ccccc2c2ccccc12` [SG6163F]: the inhibition at 10 µM on hERG potassium channel (inhibition of tritiated dofetilide binding, only values >50% considered effective, read-out: % inhibit 1st assay) worked out at 40.5%; on hERG potassium channel (inhibition of tritiated dofetilide binding, only values >50% considered effective, read-out: % inhibit 2nd assay) it was 36.6%; at hERG potassium channel (mean of two independent measurements, read-out: % inhibit Mean) it was 38.5%. The “binding to the hERG channel” value at hERG potassium channel (inhibition of specific binding of [3H]dofetilide in vitro) is “negligible”. For the same molecule, the formation of autophagosomes result with RNVCs was “capable of causing the formation of autophagosomes”.

For `C[C@H]1O[C@@H](O[C@H]2[C@@H](O)C[C@H](O[C@H]3[C@@H](O)CC(O[C@H]4CC[C@@]5(C)[C@H](CC[C@@H]6[C@@H]5C[C@@H](O)[C@]5(C)[C@@H](C7=CC(=O)OC7)CC[C@]65O)C4)O[C@@H]3C)O[C@@H]2C)C[C@H](O)[C@@H]1O` (stereo partly drawn) [digoxin], in the data set on H9C2 cells, the oxidative phosphorylation entry is recorded as “improved oxidative phosphorylation”.
